Test results: patent US20240408071A1, “NOVEL COMBINATION OF SEROTONIN RECEPTOR (5-HTR2B) ANTAGONIST AND AN IMMUNOMODULATOR AND CHEMOTHERAPEUTIC DRUGS FOR INHIBITION OF CANCER” (NATIONAL CENTRE FOR CELL SCIENCE, priority 2021, published 2024)

System: tumor-infiltrating immune cells in MC38 tumor
Assay: Tumor-infiltrating immune cells in MC38 tumor (flow cytometry / immunohistochemistry)
Format: in vivo, C57BL/6 mice
Procedure: FIG. 7 depicts that antagonizing the 5-HTR2B in mice inhibits breast and colon tumor growth: (A) MC38 colon cancer cells were injected subcutaneously into the right flank of C57BL/6 mice. […] Tumor volumes were measured and plotted. (B) MC38 colon cancer cells were injected subcutaneously into the right flank of C57BL/6 mice. After seven days when tumors became palpable, one group was treated with 5-HTR7 antagonist SB-269970 (n=6 mice; 3 mg/kg/day) or left untreated (n=6 mice). Tumor volume was measured and plotted. (C) After seven days of the setting of tumor growth, one group was treated with a serotonin transporter blocker (SSRI) sertraline hydrochloride (n=6 mice; 15 mg/kg/week) or left untreated (n=6 mice). Tumor volume was measured and plotted. (D) C57BL/6 mice were given subcutaneously injected MC38 cells. After seven days of tumor growth, one group of mice was treated with different doses of 5-HTR2B antagonist SB-215505 (n=6). Tumor volume was measured and plotted. (E) C57BL/6 mice were given subcutaneously injected MC38 cells. After seven days of the tumor growth, one group of mice was treated with different doses of 5-HTR2B antagonist SB-215505 (n=6), one group treated with 5-HTR2B agonist BW-723C86 (n=6; 4 mg/kg/day). Tumor volume was measured and plotted. (F) MC38 cells were subcutaneously injected into C57BL/6 mice. After seven days when the tumor became palpable in mice, one group of mice was treated with FDA-approved 5-HTR2B antagonist cariprazine (Carispec; Sun pharma) via oral gavage (n=5 mice; dose 5 mg/kg body weight/day) or left untreated (n=5 mice). Tumor growth was measured and plotted. (G) Breast cancer cell lines (4T1-Luc cells) were injected into the mammary fatpad of BALB/c mice. After seven days of the tumor growth setting in mice, one group of mice was treated with 5-HTR2B antagonist SB-215505(n=5 mice) or left untreated (n=5 mice). Tumour volumes were measured and plotted. (H) Mice melanoma (B16F10 cells) were injected subcutaneously in the left flank of C57BL/6J mice. After seven days of the tumor growth setting in mice, one group of mice was treated with 5-HTR2B antagonist SB-215505(n=5 mice) or left untreated (n=5 mice). Tumour volumes were measured and plotted. (I) Statistical analysis of the flow cytometric data showing the differential expression of F4/80^+CD11B^+ macrophages within MC38 tumor following treatment with 5-HTR2B antagonist. (J) Statistical analysis of the flow cytometric data showing the differential expression of F4/80^+CD11B^+ iNOS^+ M1 macrophages within MC38 tumor following treatment 5-HTR2B antagonist. (K) Statistical analysis of the flow cytometric data showing the differential expression of F4/80^+CD1B^+ Arg1^+ M2 macrophages within MC38 tumor following treatment with 5-HTR2B antagonist. (L) Immuno-Histochemistry data of MC38 tumor tissue from control and 5-HTR2B antagonist treated mice showing expression of F4/80 (cyan), iNOS (blue), arginase 1 (green), and CD11c (red). Images are taken in […] and inset images are acquired in 600× magnification and DAPI (blue) is used as counterstain. All the images in the panel were taken at 200× magnification. The image in the inset was taken in 600× magnification. All the statistical analysis was performed using Student's ‘t’ test or two-way ANOVA using Sidak's multiple comparison test. *P<0.05; **P<0.01; […]; ****P<0.0001 Error bar represents mean±standard error of means (SEM).
FIG. 9 depicts the effect of5-HTR antagonists on the CTL response MC38 tumor model in mice: (A) Clinical data correlation study. A TIDE computational method was used to study the association between the tumor-infiltrating CD8 T cells (also known as cytotoxic T lymphocytes, CTL) level and overall subject survival in relation to the intratumoral 5-HTR2B gene expression level. […]

[1] = day 24, compared to control and SB-215505 treated tumor (FIG. 14)

## CC(C)c1cc(-c2ccc(F)c3ccccc23)nc(N)n1 [RS-127445]
  total CD11c+ DCs in the TME: reducing the total CD11c^+ DCs
[1]
  percentage of PD-L1+ CD11c+ DCs in the tumor: much reduced percentage
  percentage of PD-L1+ arginase1+ M2 macrophages in the tumor: much reduced percentage
  percentage of PD-L1+ total macrophages in the tumor: much reduced percentage
  percentage of PD-L1+iNOS+ M1 macrophages in the tumor: much reduced percentage
  percentage of total CD11b+Gr1+ MDSCs in the tumor: much reduced percentage
